Data taken from a melting point compilation (Tetko et al.).

melting point [°C]	SMILES
204 to 206	Nc1cccc(C(=O)NCc2ccccc2F)c1
243 to 247	Cn1c(=O)c2c(n(Cc3ccccc3)c1=O)NC(=O)C2CC(=O)O (centres undefined)
177 to 179	COc1cc(NS(=O)(=O)c2ccc(N)cc2OC)cc(OC)c1
225 to 227	COc1ccc(C(=O)O)cc1-c1ccnn1C
39 to 41	CC(O)(C(=O)O)C1CC1 (centres undefined)
139 to 141	CCc1cc(=O)[nH]c(-c2cccc(N)c2)n1
195 to 197	O=C(O)C=Cc1cc(Cl)ccc1OCc1ccccc1Cl
123 to 127	O=C(O)CCNS(=O)(=O)c1ccc(F)cc1
191 to 193	O=C(O)c1cc(S(=O)(=O)Cl)c(F)c(Cl)c1F
179 to 181	FC(F)(F)Cn1c(-c2ccccc2)cnc1S
156 to 158	O=C(O)C1(c2ccc(F)cc2)CCOCC1
175 to 177	Cc1cccc(NC(=O)C2CCNCC2)n1
310 to 312	O=C(O)c1ccc2c(c1)CC(c1ccccc1)OC2=O (centres undefined)
161 to 163	O=C(O)CCNS(=O)(=O)c1ccc(Br)cc1
204 to 206	CS(=O)(=O)c1cc(C(=O)O)cs1
< 17	O=C(O)CSC1CCS(=O)(=O)C1 (centres undefined)
110 to 112	Nc1cccc2[nH]cnc12
39 to 41	Cc1cc(Cl)cc(C)c1C=O
58 to 60	OC(CNCc1ccccc1)C(F)(F)F (centres undefined)
179 to 181	O=C(O)c1ccc2ccc(Cl)cc2n1
60 to 62	Cc1c(Cl)cc(S(=O)(=O)Cl)cc1[N+](=O)[O-]
174 to 176	CS(=O)(=O)Cc1nc(Cl)c(Br)c(Cl)n1
218 to 220	O=C(O)c1ccc(Oc2ccc(C(F)(F)F)cn2)cc1
59 to 61	OC(c1ccccc1)c1cccnc1 (centres undefined)
144 to 146	O=C(O)c1cn(-c2ccc(Br)cc2Cl)nn1

melting point [°C]	SMILES
213 to 215	O=C(O)C1CCN(c2ccc(Br)cn2)CC1
250 to 252	NC(=O)N1CCN2C(=O)NC(=O)C2C1 (centres undefined)
89 to 91	Nc1ccc(NCc2ccccn2)cc1
249 to 251	CS(=O)(=O)Cc1nc2ccccc2n1CC(=O)O
122 to 124	CC(Oc1ccc(Cl)cc1Br)C(=O)O (centres undefined)
165 to 167	Brc1cccc2[nH]ncc12
59 to 61	Cc1cnoc1N
116 to 118	CCCc1ccccc1NC(N)=S
66 to 70	CCc1cccc(OCC(=O)O)c1
76 to 78	NC(=O)CCCCCl
159 to 161	CC(=O)c1ccc(C(=O)O)c(F)c1
164 to 166	NC(=O)c1nc(Cl)ccc1N
135 to 137	O=C(O)C1CC(c2cc(F)ccc2F)=NO1 (centres undefined)
197 to 199	COc1cc(C(=O)O)cc(Br)c1O
64 to 66	CC(C)=C(F)C(=O)O
121 to 123	CCC(=O)Nc1ccc(C)c(N)c1
280 to 282	N#Cc1cc(C#N)c(S)nc1N
65 to 67	Cc1noc(-c2ccnc(Cl)c2)n1
159 to 161	O=C(O)C1CCN(c2cncc3nnnn23)CC1
10 to 12	CS(=O)(=O)N1CCN(CCN)CC1
178 to 180	COc1cc(Cl)ccc1C(=O)NN
244 to 246	Cc1sc2ncnc(NCC(=O)O)c2c1C
89 to 91	Cc1ccc(NC2CCCCC2)nc1
290 to 292	O=[N+]([O-])c1[nH]cnc1-c1ccc(F)cc1
71 to 73	Cc1cccc(CNC(=O)CCl)c1

melting point [°C]	SMILES
51 to 53	N#CCC(=O)c1ccc(F)c(C(F)(F)F)c1
64 to 66	CC(C)(C(=O)O)C1CCCCC1
50 to 52	ClCc1nc(-c2ccc3c(c2)OCO3)no1
176 to 178	NS(=O)(=O)c1c(Cl)cccc1Cl
119 to 121	O=C(O)CSCC(=O)N1CCOCC1
188 to 190	O=C(O)c1ccc(S(=O)(=O)Cl)c(F)c1
123 to 125	COC(=O)Cc1csc(N)n1
119 to 121	Nc1ccc2c(c1)C(=O)NCC2
159 to 161	CCOC(=O)c1[nH]c2c(c1C)C(=O)CCC2
175 to 177	CC(C)c1cnc(S)n1C1CC1
135 to 137	CN(C)C(=O)Cn1cnc(N)n1
157 to 159	COC(=O)c1ccoc1CSc1ccccc1C(=O)O
159 to 161	Cc1ccc(C(=O)NCCC(=O)O)c(O)c1
117 to 119	CCNC(=O)Cc1ccc(N)cc1
193 to 195	O=C(O)c1nc(-c2ccccc2)oc1-c1ccccc1
93 to 95	CC(C)c1ccc(C(=O)O)c(O)c1
165 to 167	NC(=S)Nc1cccc2c1CCCC2
170 to 172	Nc1nnc(Cc2ccc(F)cc2)s1
96 to 98	CN(C=O)c1ccc(C(=O)CCl)cc1
169 to 171	COc1ccc(Oc2ccc(S(N)(=O)=O)cc2)cc1
44 to 46	CCOc1ccccc1OCC(=O)O
129 to 131	Nc1ncc(Cc2ccc(Br)cc2)s1
219 to 221	COc1ccccc1-c1ncc(C(=O)O)[nH]1
159 to 161	O=C(NC1CCCC1)c1cnc(Cl)c(Cl)c1
157 to 159	CC(C)(C)C(=O)Nc1ccccc1C(=O)O

melting point [°C]	SMILES
210 to 212	O=C1Nc2cc3c(cc2C1=O)OCCO3
59 to 61	COCCCS(=O)(=O)NCC(=O)O
171 to 173	CC(O)c1ccc2c(c1)CC(=O)N2 (centres undefined)
45 to 47	Cc1ccc(C(=O)CBr)cc1[N+](=O)[O-]
235 to 237	O=C(O)c1cc(-c2ccc3c(c2)CCO3)no1
130 to 132	O=C(NC1CC1)c1ccc(Cl)c([N+](=O)[O-])c1
202 to 204	Nc1nc2c(Br)cc(OC(F)(F)F)cc2s1
202 to 204	O=C(O)c1cc(-c2ccccc2)cc(Cl)c1O
61 to 63	Clc1cc(SCc2ccccc2)ccn1
90 to 92	O=C(CNCc1ccc(Cl)cc1)Nc1ccccc1F
83 to 85	O=C(c1nc2ccccc2s1)C(F)(F)F
204 to 206	O=C(O)C(=Cc1ccc(Cl)cc1)c1ccc(F)cc1
106 to 108	N#Cc1ccc(N2CCCC2=O)cc1
204 to 208	COc1ccc(-c2nnc(S)n2N)cc1OC
143 to 145	O=C(O)c1ccn(-c2cccc(Cl)c2)n1
94 to 96	Nc1ccc(S)c(Br)c1
76 to 78	CCOC(=O)c1c(CCCO)cnc2cc(C)nn12
114 to 116	N#Cc1cc(C(F)(F)F)ccc1-n1cncn1
139 to 141	CCCCC1NC(=O)NC1=O (centres undefined)
213 to 215	COc1ccc(C2C(C(=O)O)CCC(=O)N2C)cc1 (centres undefined)
186 to 188	NCc1cccc(NS(=O)(=O)c2ccc(Cl)cc2)c1
178 to 180	FC(F)(F)CNc1nnc(S)s1
261 to 263	O=C(O)/C=C/c1cc(Cl)c2c(c1)OCCO2
277 to 279	CCCC(N)c1nnn[nH]1 (centres undefined)
213 to 215	CC(C)(C)c1ccc(-c2nnc(N)[nH]2)cc1

SMILES	melting point [°C]
NCCc1ccc(CO)cc1	35 to 37
c1cc(C2CCNCC2)[nH]n1	146 to 148
c1ccc2sc(C3CCNCC3)nc2c1	127 to 129
CNc1nc(N)n[nH]1	158 to 160
